{"source": "PubChem BioAssay AID449750", "about": "(Broad Institute, 2010)", "note": "Calls of active or inactive are those of the source. How the calls were made is not given here.", "data": [{"assay": "non-covalent RecA intein splicing inhibitors, dose response, biochemical, cell-free, fluorescence, secondary screen (AID 449750)", "values": [{"smiles": "O=C(NNC(=O)c1ccc2ccccc2c1O)c1ccccc1Cl", "AC50": "> 38 µM (inactive)"}, {"smiles": "CCCCOC(=O)CNc1nnc(SCC(=O)OCC)[nH]c1=O", "AC50": "> 38 µM (inactive)"}, {"smiles": "COc1ccc(N2CCN(C(=O)c3ccc(Oc4ccc(C(F)(F)F)cn4)cc3)CC2)cc1", "AC50": "> 38 µM (inactive)"}, {"smiles": "CC(C)CCn1c(N)c(C(=O)NCc2cccs2)c2nc3ccccc3nc21", "AC50": "> 38 µM (inactive)"}, {"smiles": "Cc1[nH][nH]c(=O)c1C(c1ccc(-c2ccccc2C(=O)O)o1)c1c(C)[nH][nH]c1=O", "AC50": "3.19 µM"}, {"smiles": "COC(=O)c1cc(C)nc2c1C(=O)C(=O)C=C2N1CCOCC1", "AC50": "1.16 µM"}, {"smiles": "CCOc1ccc(Cl)cc1C(c1c(C)[nH][nH]c1=O)c1c(C)[nH][nH]c1=O", "AC50": "12 µM"}, {"smiles": "Cc1ccccc1N(Cc1cc(=O)[nH]c2ccccc12)C(=O)CCl", "AC50": "8.32 µM"}, {"smiles": "CCCCCCCCCC[N+](C)(C)CC/C=C1/c2ccccc2Sc2ccc(Cl)cc21", "AC50": "5.09 µM"}, {"smiles": "COc1ccc(C(C[N+](=O)[O-])c2c(C)[nH]n(-c3ccccc3)c2=O)cc1", "note": "(configuration not stated)", "AC50": "2.8 µM"}, {"smiles": "CCOC(=O)C1=C(c2ccccc2)NC(N)=NC1c1ccc(OCc2ccc(Cl)cc2)c(OC)c1", "note": "(configuration not stated)", "AC50": "10.2 µM"}, {"smiles": "CC1=NN(CCC#N)C(=O)/C1=C/c1ccc(N(C)C)cc1", "AC50": "22.4 µM"}, {"smiles": "O=C(O)CN1C(=O)/C(=C\\c2cccc(OCc3ccc(Cl)cc3Cl)c2)SC1=S", "AC50": "6.45 µM"}, {"smiles": "COc1ccc(-n2c(C)cc(C(=O)CCl)c2C)cc1", "AC50": "13.6 µM"}, {"smiles": "N=C(N)SCc1cn(-c2ccccc2)nc1-c1ccc(Br)cc1", "AC50": "16.2 µM"}, {"smiles": "Cc1[nH]n(-c2ccccc2)c(=O)c1/C=C1\\C=NN=C1c1ccccc1", "AC50": "17 µM"}, {"smiles": "Cc1[nH][nH]c(=O)c1C(c1c(C)[nH][nH]c1=O)c1cn(Cc2ccccc2Cl)c2ccccc12", "AC50": "1.68 µM"}, {"smiles": "COc1cccc(NC(=O)CSc2c3c(nc4ccccc24)CCCC3)c1", "AC50": "39.5 µM"}, {"smiles": "Cc1[nH][nH]c(=O)c1C(c1ccc(-c2ccc(F)cc2)o1)c1c(C)[nH][nH]c1=O", "AC50": "3.95 µM"}, {"smiles": "Cn1ccnc1Sc1cc(NCCCO)c([N+](=O)[O-])c2nonc12", "AC50": "> 38 µM (inactive)"}, {"smiles": "Cc1ccc(NC2=C(N3CCOCC3)C(=O)c3ccccc3C2=O)cc1", "AC50": "11.3 µM"}, {"smiles": "S=C(Nc1ccc2nsnc2c1)N1CCCCCC1", "AC50": "9.37 µM"}, {"smiles": "CCCCCCCCCCOC(=O)Cn1c(COc2ccccc2C)[n+](C)c2ccccc21", "AC50": "6.93 µM"}, {"smiles": "Cc1ccc(-c2cc(NC(=O)CCl)n(-c3ccccc3)n2)cc1", "AC50": "7.65 µM"}, {"smiles": "O=C1c2ccccc2C(=O)c2c1oc(C(F)(F)F)c2C(=O)c1ccccc1", "AC50": "> 38 µM (inactive)"}, {"smiles": "CCOC(=O)C(C(=O)OCC)c1cc(Br)c2noc3c2c1C(=O)c1ccccc1-3", "AC50": "8.74 µM"}, {"smiles": "O=C(CCl)N1CCCC1c1ccc2c(c1)OCCO2", "note": "(configuration not stated)", "AC50": "4.86 µM"}, {"smiles": "O=c1c2ccccc2nc(/C=C/c2cccnc2)n1CCc1ccccc1", "AC50": "15.9 µM"}, {"smiles": "CC1=NN(c2ccccc2)C(=O)/C1=C\\c1cc(C)n(-c2cccnc2)c1C", "AC50": "> 38 µM (inactive)"}, {"smiles": "O=C(NCc1cccnc1)/C(=C\\c1ccc(-c2ccc(Br)cc2)o1)S(=O)(=O)c1ccccc1", "AC50": "24.7 µM"}, {"smiles": "CN1CCN(C(c2ccc(Br)cc2)c2cc(Cl)c3cccnc3c2O)CC1", "note": "(configuration not stated)", "AC50": "5.33 µM"}, {"smiles": "CCCc1nnc(NC(=O)c2nc(S(=O)(=O)Cc3ccc(C)cc3)ncc2Cl)s1", "AC50": "1.55 µM"}, {"smiles": "CC(/C=C1\\SC(=S)N(NC(=O)c2cccc(O)c2)C1=O)=C\\c1ccccc1", "AC50": "20.9 µM"}, {"smiles": "COc1ccc(C2=NN(c3ccccc3)C(=O)/C2=C\\c2ccc(O)c(OC)c2)cc1", "AC50": "3.62 µM"}, {"smiles": "CSc1nnc(NC(=O)c2nc(S(=O)(=O)Cc3ccccc3)ncc2Cl)s1", "AC50": "> 38 µM (inactive)"}, {"smiles": "CC1=NN(c2ccccc2)C(=O)/C1=C/c1cccc(C)c1", "AC50": "4.14 µM"}, {"smiles": "O=C(O)CC1OCC=C2CN3CCC45C6=CC(=O)C(=O)C([N+](=O)[O-])=C6NC4C1C2CC35", "note": "(configuration not stated)", "AC50": "32.5 µM"}, {"smiles": "Cc1[nH][nH]c(=O)c1C(c1ccc(Br)cc1)c1c(C)[nH][nH]c1=O", "AC50": "11.1 µM"}, {"smiles": "O=C(O)COc1ccc(/C=C2/SC(=S)N(Cc3ccccc3)C2=O)cc1", "AC50": "31.6 µM"}, {"smiles": "COc1ccc(NC(=O)Cn2ncc(Cl)c(Cl)c2=O)cc1S(=O)(=O)N1CCOCC1", "AC50": "> 38 µM (inactive)"}, {"smiles": "C/C(CC(=O)Nc1cc(C)ccn1)=N\\NC(=O)COc1cccc(C)c1", "AC50": "11.1 µM"}, {"smiles": "COc1ccc(COC(=O)N/N=C(\\C)CC(=O)Nc2ccc(Cl)cn2)cc1", "AC50": "> 38 µM (inactive)"}, {"smiles": "CCOc1ccccc1Nc1nnc(Cc2ccccc2Cl)c(=O)[nH]1", "AC50": "> 38 µM (inactive)"}, {"smiles": "O=C(/C=C/c1ccccc1)c1ccc2c3c(cccc13)CC2", "AC50": "3.7 µM"}, {"smiles": "Cc1cccc(Nc2nc(NCc3ccco3)c3ccccc3n2)c1", "AC50": "8.01 µM"}, {"smiles": "O=C(O)C1Nc2c(O)cc(Cl)c([N+](=O)[O-])c2C2C=CCC12", "note": "(configuration not stated)", "AC50": "10.9 µM"}, {"smiles": "CC(C)(C)C1CCc2sc(C(=O)NNC(=O)CCl)cc2C1", "note": "(configuration not stated)", "AC50": "1.94 µM"}, {"smiles": "CCN1CCN(c2c(Cl)cccc2NC(=O)c2ccc3c(c2)OCCO3)CC1", "AC50": "> 38 µM (inactive)"}, {"smiles": "Cc1ccccc1-c1nc(CN(C)C(C)c2ccon2)c(C)o1", "note": "(configuration not stated)", "AC50": "> 38 µM (inactive)"}, {"smiles": "CCCn1c(CC)nc([N+](=O)[O-])c1S(=O)(=O)c1ccccc1", "AC50": "> 38 µM (inactive)"}, {"smiles": "O=c1[nH]cc(NCCc2ccccc2)c(=O)[nH]1", "AC50": "> 38 µM (inactive)"}, {"smiles": "CS(=O)(=O)c1ccc(C(=O)OCC(=O)NC23CC4CC(CC(C4)C2)C3)cc1[N+](=O)[O-]", "AC50": "> 38 µM (inactive)"}]}]}
